Tested on: SEM cells
Assay: cell viability relative to DMSO control; higher = less cytotoxic
Conditions: 48 h
Outline: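 Library compounds in DMSO were pin-dosed into 1536-well plates (5 μl) holding NOMO1 or SEM (500 cells/well) or P12-Ichikawa (1000 cells/well) leukemia cells, across an 11-point threefold series of 47 μM to 0.79 nM. Each cell line had been adapted for at least four passages in each medium. CellTiter-Glo One luminescence was read after 48 h at 37°C. Viability is the per-plate percentage relative to DMSO wells, with cell-free wells as background.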

[1] = HPLM + 10% dialyzed FBS, 0.000781 µM
[2] = HPLM + 10% dialyzed FBS, 0.00234 µM
[3] = HPLM + 10% dialyzed FBS, 0.00702 µM
[4] = HPLM + 10% dialyzed FBS, 0.0211 µM
[5] = HPLM + 10% dialyzed FBS, 0.0632 µM
[6] = HPLM + 10% dialyzed FBS, 0.19 µM
[7] = HPLM + 10% dialyzed FBS, 0.569 µM
[8] = HPLM + 10% dialyzed FBS, 1.71 µM
[9] = HPLM + 10% dialyzed FBS, 5.12 µM
[10] = HPLM + 10% dialyzed FBS, 15.4 µM
[11] = HPLM + 10% dialyzed FBS, 46.1 µM
[12] = RPMI 5 mM glucose + 10% FBS, 0.000781 µM
[13] = RPMI 5 mM glucose + 10% FBS, 0.00234 µM
[14] = RPMI 5 mM glucose + 10% FBS, 0.00702 µM
[15] = RPMI 5 mM glucose + 10% FBS, 0.0211 µM
[16] = RPMI 5 mM glucose + 10% FBS, 0.0632 µM
[17] = RPMI 5 mM glucose + 10% FBS, 0.19 µM
[18] = RPMI 5 mM glucose + 10% FBS, 0.569 µM
[19] = RPMI 5 mM glucose + 10% FBS, 1.71 µM
[20] = RPMI 5 mM glucose + 10% FBS, 5.12 µM
[21] = RPMI 5 mM glucose + 10% FBS, 15.4 µM
[22] = RPMI 5 mM glucose + 10% FBS, 46.1 µM
[23] = RPMI 5 mM glucose + 10% dialyzed FBS, 0.000781 µM
[24] = RPMI 5 mM glucose + 10% dialyzed FBS, 0.00234 µM
[25] = RPMI 5 mM glucose + 10% dialyzed FBS, 0.00702 µM
[26] = RPMI 5 mM glucose + 10% dialyzed FBS, 0.0211 µM
[27] = RPMI 5 mM glucose + 10% dialyzed FBS, 0.0632 µM
[28] = RPMI 5 mM glucose + 10% dialyzed FBS, 0.19 µM
[29] = RPMI 5 mM glucose + 10% dialyzed FBS, 0.569 µM
[30] = RPMI 5 mM glucose + 10% dialyzed FBS, 1.71 µM
[31] = RPMI 5 mM glucose + 10% dialyzed FBS, 5.12 µM
[32] = RPMI 5 mM glucose + 10% dialyzed FBS, 15.4 µM
[33] = RPMI 5 mM glucose + 10% dialyzed FBS, 46.1 µM

Row | Structure (SMILES) | cell viability [1] [%] | cell viability [2] [%] | cell viability [3] [%] | cell viability [4] [%] | cell viability [5] [%] | cell viability [6] [%] | cell viability [7] [%] | cell viability [8] [%] | cell viability [9] [%] | cell viability [10] [%] | cell viability [11] [%] | cell viability [12] [%] | cell viability [13] [%] | cell viability [14] [%] | cell viability [15] [%] | cell viability [16] [%] | cell viability [17] [%] | cell viability [18] [%] | cell viability [19] [%] | cell viability [20] [%] | cell viability [21] [%] | cell viability [22] [%] | cell viability [23] [%] | cell viability [24] [%] | cell viability [25] [%] | cell viability [26] [%] | cell viability [27] [%] | cell viability [28] [%] | cell viability [29] [%] | cell viability [30] [%] | cell viability [31] [%] | cell viability [32] [%] | cell viability [33] [%]
1 | O=C(O)c1cc(/N=N/c2ccc([S+](=O)([O-])Nc3ccccn3)cc2)ccc1O | 84.9 | 108 | 95.3 | 76.3 | 101 | 103 | 122 | 106 | 110 | 90.8 | 98.2 | 98.8 | 101 | 108 | 71.9 | 103 | 114 | 112 | 97.2 | 89.3 | 116 | 75.1 | 91.7 | 102 | 96.2 | 76.8 | 117 | 91.5 | 97.5 | 106 | 95.5 | 89.4 | 82.1
2 | CC(C(=O)O)c1ccc2c(c1)CC(=O)c1ccccc1S2 (stereo not given) | 99.9 | 117 | 109 | 115 | 94.3 | 112 | 95.4 | 114 | 126 | 116 | 115 | 111 | 109 | 116 | 104 | 103 | 105 | 117 | 121 | 99.4 | 107 | 96.5 | 122 | 115 | 129 | 133 | 124 | 108 | 116 | 117 | 110 | 129 | 118
3 | O=C(O)CCNC(=O)c1ccc(/N=N/c2ccc(O)c(C(=O)O)c2)cc1 | 116 | 108 | 118 | 109 | 106 | 105 | 98.9 | 105 | 103 | 101 | 96.7 | – | – | – | – | – | – | – | – | – | – | – | – | – | – | – | – | – | – | – | – | – | –
4 | CC(C)c1cc(C(C)C)c(CC(=O)N[S+](=O)([O-])Oc2c(C(C)C)cccc2C(C)C)c(C(C)C)c1 | 93.7 | 108 | 107 | 96.2 | 100 | 106 | 108 | 102 | 99.7 | 99 | 95.1 | 114 | 119 | 114 | 121 | 114 | 121 | 116 | 115 | 130 | 122 | 115 | 90.5 | 104 | 103 | 104 | 108 | 104 | 103 | 97.3 | 96.8 | 88.6 | 93.3
